How the values were obtained:
[1] = molecular target: T1, human indoleamine 2,3-dioxygenase 1 (hIDO1) (Homo sapiens, UniProt P14902, F270G); assay: X-ray crystal structure ([…] Å); activity titration (inhibition); assay type: biochemical
T1 construct: gene IDO1

[2] = molecular target: T2, human indoleamine 2,3-dioxygenase 1 (hIDO1) (Homo sapiens, UniProt P14902); assay: X-ray crystal structure ([…] Å); activity titration; assay type: biochemical
T2 construct: gene IDO1

[3] = molecular target: T1, human indoleamine 2,3-dioxygenase 1 (hIDO1); assay: X-ray crystal structure ([…] Å), two Trp bound; steady-state activity; assay type: binding
[4] = molecular target: T2, human indoleamine 2,3-dioxygenase 1 (hIDO1); assay: X-ray crystal structure ([…] Å); steady-state activity; assay type: binding

T2 sequence (P14902 whole entry): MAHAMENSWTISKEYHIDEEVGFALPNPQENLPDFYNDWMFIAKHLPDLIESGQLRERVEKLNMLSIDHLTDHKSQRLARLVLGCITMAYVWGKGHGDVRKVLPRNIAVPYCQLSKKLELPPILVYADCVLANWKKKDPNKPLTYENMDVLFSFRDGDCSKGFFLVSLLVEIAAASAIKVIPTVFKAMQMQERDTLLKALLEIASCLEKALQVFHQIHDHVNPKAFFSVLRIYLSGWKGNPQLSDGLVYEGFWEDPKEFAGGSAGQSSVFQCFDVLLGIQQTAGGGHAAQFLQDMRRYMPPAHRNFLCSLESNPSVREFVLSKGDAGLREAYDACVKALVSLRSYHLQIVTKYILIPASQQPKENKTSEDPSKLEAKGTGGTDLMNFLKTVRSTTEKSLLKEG
T1 sequence (P14902 11-403 F270G): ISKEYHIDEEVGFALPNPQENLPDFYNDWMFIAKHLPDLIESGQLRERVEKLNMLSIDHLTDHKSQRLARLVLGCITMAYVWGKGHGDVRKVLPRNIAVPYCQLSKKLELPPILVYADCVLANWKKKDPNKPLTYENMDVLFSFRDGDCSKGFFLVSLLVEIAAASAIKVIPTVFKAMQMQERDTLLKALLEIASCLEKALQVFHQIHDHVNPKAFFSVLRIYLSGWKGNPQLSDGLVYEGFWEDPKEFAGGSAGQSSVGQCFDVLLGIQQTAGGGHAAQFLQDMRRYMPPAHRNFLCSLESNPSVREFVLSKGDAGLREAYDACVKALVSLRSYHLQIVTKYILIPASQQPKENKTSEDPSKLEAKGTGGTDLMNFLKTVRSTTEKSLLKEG

Structure (SMILES)	Kd [1] [µM]	Kd [2] [µM]	X-ray crystal structure (3.03 Å), two Trp bound; steady-state activity [3]	X-ray crystal structure (2.40 Å); steady-state activity [4]
OCCc1c[nH]c2ccccc12 [IDE, 3-indole ethanol]	~100	~230		
N[C@@H](Cc1c[nH]c2ccccc12)C(=O)O [Trp]			Crystal structure of the F270G-CN-Trp complex in a two Trp-bound state, where both the Sa and Si sites are occupied	The substrate Trp binds in the distal heme pocket, which is enclosed by the JK-Loop^C and the DE-Loop

From paper PMC5700043, “Structural insights into substrate and inhibitor binding sites in human indoleamine 2,3-dioxygenase 1” (Nature Communications, 2017)
